Data reported in patent US5877202A, “Indole derivatives useful to treat estrogen-related neoplasms and disorders” (priority 1996, dated 1999).

Columns and labels:
MCF-7 estrogen receptor = target: T1, MCF-7 estrogen receptor (Homo sapiens, UniProt P03372); experiment: Competitive binding assay, Relative Binding Affinities on binding of estradiol to MCF-7 estrogen receptor
T1 construct: estrogen receptor extracted from MCF-7 human breast tumor cells; endogenous in cells; host or cells: MCF-7 human breast cancer cells (nuclear extract, cytosol or whole cell extract)
T1 sequence (P03372 1-595): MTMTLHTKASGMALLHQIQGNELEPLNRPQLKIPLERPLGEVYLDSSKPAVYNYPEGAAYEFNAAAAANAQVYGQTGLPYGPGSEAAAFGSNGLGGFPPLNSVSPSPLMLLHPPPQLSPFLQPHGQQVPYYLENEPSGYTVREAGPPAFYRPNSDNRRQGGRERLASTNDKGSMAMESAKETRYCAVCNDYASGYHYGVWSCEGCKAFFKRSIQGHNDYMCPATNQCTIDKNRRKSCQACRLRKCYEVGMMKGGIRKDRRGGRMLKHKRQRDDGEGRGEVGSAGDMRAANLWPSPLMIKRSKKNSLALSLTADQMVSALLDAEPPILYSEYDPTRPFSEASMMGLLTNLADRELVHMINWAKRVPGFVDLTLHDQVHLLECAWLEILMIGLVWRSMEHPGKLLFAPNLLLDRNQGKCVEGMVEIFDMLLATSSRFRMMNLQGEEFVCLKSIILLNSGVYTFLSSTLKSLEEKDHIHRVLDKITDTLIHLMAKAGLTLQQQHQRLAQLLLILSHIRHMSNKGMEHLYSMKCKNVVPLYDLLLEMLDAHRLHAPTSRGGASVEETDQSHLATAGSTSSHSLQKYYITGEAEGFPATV
Method: Briefly, RBAs are determined from competitive binding assays with several concentrations of estradiol (E2) with and without test compound. After 16-18 hours of incubation at 4 degrees C., unbound [^3 H] E2 is separated from ER-bound [^3 H] E2. The IC50 is determined and the RBA is calculated as: […]

[1] = tested on: tamoxifen-resistant LY-2 cells; experiment: Inhibition of growth of tamoxifen-resistant LY-2 cells; assay type: cell-based; settings: medium with 0.001 mg/ml insulin
MCF-7 tumors = experiment: Inhibition of growth of MCF-7 tumors implanted in nu/nu mice; assay type: in vivo, female nu/nu mice; settings: for tumor volume: n = 5, in mm³
estrogen receptor mRNA = experiment: Reduction of estrogen receptor mRNA levels in treated MCF-7 human breast tumor cells; assay type: cell-based;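 on Estrogen Receptor mRNA band intensity: Phosphoimager intensity of radioactive mRNA bands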
Method: After treatment with 30 μM drug for 24 hr, total RNA is isolated according to the guanidinium isothiocyanate method using an RNA preparation kit from 5 Prime-3 Prime, Inc., following the manufacturer's instructions. The RNA is separated by formaldehyde gel electrophoresis and transferred to a nylon membrane.

[2] = tested on: MCF-7 human breast tumor cells; experiment: Clonigenic assay for MCF-7 human breast tumor cells; assay type: cell-based; settings: for Colonies ± S.D.: 24 hours treatment, grown 22 days
Method: MCF-7 cells (10^7) are added to 100 mm tissue culture dishes, allowed to adhere for 24 hours and then treated with either MDL 101,906 or ICI 164,384 for 24 hours. The cells are removed from the dishes with trypsin/EDTA, and washed twice by centrifugation. The cells were counted and 500 cells from each treatment group are added to triplicate wells of 6-well culture dishes. The cells are grown for 22 days. Colonies 1 mm diameter or greater are counted.

Compound: CCCCN(C)C(=O)CCCCCCCNC(=O)Cc1c(C)n(C(=O)c2ccc(Cl)cc2)c2ccc(O)cc12 [MDL 101,906, 8-[[5-Hydroxy-1-(4-chlorobenzoyl)-2-methyl-1H-indol-3-yl]-acetylamino]-octanoic acid methyl-butyl-amide]
- inhibition of estradiol binding to MCF-7 ER (MCF-7 estrogen receptor; doses of 100 or 200 nM): did not significantly inhibit
- inhibition of estradiol binding to MCF-7 ER (MCF-7 estrogen receptor; typically, at doses of 100 or 200 nM): less than 10%
- IC50 [1]: 4.7 µM
- tumor volume (MCF-7 tumors; 10 mg/kg i.p., day 14 after tumor implantation): 49 ± 18
- tumor volume (MCF-7 tumors; 10 mg/kg i.p., day 22 after tumor implantation): 111 ± 36
- tumor volume (MCF-7 tumors; 10 mg/kg i.p., day 29 after tumor implantation): 155 ± 43
- tumor volume (MCF-7 tumors; 10 mg/kg i.p., day 36 after tumor implantation): 255 ± 70
- tumor volume (MCF-7 tumors; 20 mg/kg i.p., day 14 after tumor implantation): 58 ± 9
- tumor volume (MCF-7 tumors; 20 mg/kg i.p., day 22 after tumor implantation): 140 ± 16
- tumor volume (MCF-7 tumors; 20 mg/kg i.p., day 29 after tumor implantation): 197 ± 30
- tumor volume (MCF-7 tumors; 20 mg/kg i.p., day 36 after tumor implantation): 282 ± 38
- tumor volume (MCF-7 tumors; 50 mg/kg i.p., day 14 after tumor implantation): 77 ± 14
- tumor volume (MCF-7 tumors; 50 mg/kg i.p., day 22 after tumor implantation): 143 ± 13
- tumor volume (MCF-7 tumors; 50 mg/kg i.p., day 29 after tumor implantation): 178 ± 53
- tumor volume (MCF-7 tumors; 50 mg/kg i.p., day 36 after tumor implantation): 291 ± 79
- tumor volume (MCF-7 tumors; 100 mg/kg i.p., day 14 after tumor implantation): 56 ± 10
- tumor volume (MCF-7 tumors; 100 mg/kg i.p., day 22 after tumor implantation): 81 ± 16
- tumor volume (MCF-7 tumors; 100 mg/kg i.p., day 29 after tumor implantation): 110 ± 24
- tumor volume (MCF-7 tumors; 100 mg/kg i.p., day 36 after tumor implantation): 170 ± 41
- tumor volume over time, dose dependence (MCF-7 tumors; 10 to 100 mg/kg i.p.): dose-dependent decrease in the tumor volume over time
- decrease in tumor volume over control (MCF-7 tumors; highest dose (100 mg/kg), 36 days after tumor implantation): 55%
- size of the tumors compared to control mice (MCF-7 tumors; intraperitoneal injections, suspension in 20% DMSO/water): reduced the size of the tumors compared to control mice
- ER/GAPDH mean (estrogen receptor mRNA; 30 μM, 24 hr, mean of replicates 1 and 2): 0.53
- ER/GAPDH (estrogen receptor mRNA; 30 μM, 24 hr, replicate 1): 0.98
- Estrogen Receptor mRNA band intensity (estrogen receptor mRNA; 30 μM, 24 hr, replicate 1): 5,142
- ER/GAPDH (estrogen receptor mRNA; 30 μM, 24 hr, replicate 2): 0.38
- Estrogen Receptor mRNA band intensity (estrogen receptor mRNA; 30 μM, 24 hr, replicate 2): 1,916
- activity at 30 µM (estrogen receptor mRNA; Homo sapiens, MCF7, 24 h, read-out: ER/GAPDH % Control): 18%
- Colonies ± S.D. ([2]; 10 μM): 30 ± 10
- Colonies ± S.D. ([2]; 20 μM): 27 ± 5
- Colonies ± S.D. ([2]; 50 μM): 12 ± 2
- activity at 10 µM ([2]; Homo sapiens, MCF7, 528 h, 10 μM, read-out: Colonies, % Control): 91%
- activity at 20 µM ([2]; Homo sapiens, MCF7, 528 h, 20 μM, read-out: Colonies, % Control): 82%
- activity at 50 µM ([2]; Homo sapiens, MCF7, 528 h, 50 μM, read-out: Colonies, % Control): 36%
